Key:
β-catenin = test: Expression of β-catenin in dermal papilla cells (SDS-PAGE / anti-β-catenin antibody); format: cell-based, human; conditions: escin 0.2-5 μg/mL, 1 day; GAPDH control; FIG. 2
Description: In dermal papilla cells in a catagen stage and a telogen stage, during which Wnt signals are inhibited, β-catenin is decomposed by GSK3-beta. However, in dermal papilla cells in an anagen stage, during which Wnt signals are amplified, activity of GSK3-beta is inhibited and β-catenin is not decomposed, resulting in an increase in expression of β-catenin. Human dermal papilla cells were pipetted to six well plates at about 500,000 cells/well, and treated with escin for 1 day at a concentration of 0.2, 0.5, 1.2 and 5 μg/mL, followed by incubation. After incubation, M-PER lysis buffer was used to cause lysis of the cells and the same amount of cell lysate was loaded on SDS-PAGE gel. The cell lysate loaded on SDS-PAGE gel was transferred to a nitrocellulose membrane and anti-β-catenin antibody was attached to the nitrocellulose membrane to detect protein. GAPDH was used as a control for correcting protein content. The amount of β-catenin increased by escin was determined.

[1] = system: Wnt/β-catenin promoter activity (Wnt reporter HEK293SA cells); test: Wnt/β-catenin promoter luciferase reporter analysis; format: cell-based; conditions: escin 5, 10 and 20 μg/mL, FIG. 1
Method: In general, Wnt/β-catenin signals activated in dermal papilla cells are generated while a transition from a […] to an anagen stage occurs in the hair growth cycle, i.e. during a period from beginning of hair growth to an activation stage of hair growth. In addition, in a telogen stage and catagen stage, Wnt/β-catenin signals become weak or disappear to cause degradation of hair follicles and depilation. In this Experimental Example, it is determined how escin contributes to amplification of Wnt/β-catenin signals.
As a positive control which amplifies Wnt/β-catenin signals, wnt3a protein was used. In addition, dimethyl sulfoxide (DMSO) was used as a negative control. In a 96-well culture plate, approximately 3×10^4 of Wnt reporter HEK293SA cells were seeded to each well and treatment with escin was carried out at a concentration of 5 μg/mL, 10 μg/mL and 20 μg/mL. Then, a luciferase assay kit (E1960) available from Promega Corp. was used to carry out reporter analysis according to the test method provided by the company. In addition, luminometer Victor (Perkin Elmer, Waltham, Mass., USA) was used to determine Wnt/β-catenin promoter activity.

[2] = system: Human-derived dermal papilla cells (DPCs); test: Dermal papilla cell proliferation, CCK-8 (Experimental Example 2, escin); format: cell-based; conditions: one day; for Dermal Papilla Cell Proliferation Ability (%): control = 100
Method: Human-derived dermal papilla cells (DPCs) were purchased from PromoCell GmbH. DPCs were cultured under the conditions of 37° C. and 5% CO2 by using a follicle dermal papilla cell growth medium and supplement mix recommended by PromoCell GmbH. The cultured DPCs were pipetted to a 96-well plate at 3,000 cells/well and cultured for 24 hours in the presence of 0.1% of blood serum. Then, the cultured cells were treated with escin at a concentration of 0.2, 0.5, 1.2 and 5 μg/mL for one day and then incubated, and DMSO (vehicle) diluted to 1:1000 in serum-free DMEM was used as a control. After incubation, a cell counting kit (CCK) was used to evaluate proliferation of cells. The culture medium was treated with CCK-8 at a ratio of 1:10, followed by incubation for 1 hour. After 1 hour, the absorbance of each well was determined at 450 nm. All tests were repeated three times and the average of absorbance value was calculated. The results are shown by the percentage of a test group with the result of the control taken as 100.

Versican = test: Real-time PCR gene expression in dermal papilla cells: versican; format: cell-based, human; conditions: for Expression of Genes (%): Versican: non-treated group = 100; for expression of versican, result in words: summary of Table 10
Description: (§1) In general, it is known that VEGF, IGF-1, FGF, or the like, secreted in dermal papilla cells induce an anagen stage of hair. In addition, versican is known as a marker of an anagen stage of hair and DKK-1 is known as a marker of a catagen stage of hair. Therefore, effects of rhaponticin, rhein, chrysophanol and physicon-O-d-glucopyranoside upon the signals of accelerating an anagen stage and those of inducing a catagen stage in dermal papilla cells were examined according to the present disclosure. In a 6-well culture plate, dermal papilla cells were seeded to each well at 1×10^5 and treated with 10 μg/mL of each of the samples of rhaponticin, rhein, chrysophanol, physicon-O-d-glucopyranoside and combinations thereof as shown in the following Table 10. Then, real-time PCR was used to determine expression of each of VEGF, versican and DKK-1 by using Taqman® probe (Thermo Fisher, Massachusetts, USA) as shown in the following Table 9. [table]

DKK-1 = test: Real-time PCR gene expression in dermal papilla cells: DKK-1; format: cell-based, human; conditions: for Expression of Genes (%): DKK-1: non-treated group = 100; for expression of DKK-1, result in words: summary of Table 10
Description: as §1

VEGF = test: Real-time PCR gene expression in dermal papilla cells: VEGF; format: cell-based, human; conditions: for Expression of Genes (%): VEGF: non-treated group = 100; for expression of VEGF, result in words: summary of Table 10
Description: as §1

[3] = system: Human-derived dermal papilla cells (DPCs); test: Dermal papilla cell proliferation, CCK-8 (Experimental Example 6); format: cell-based; conditions: for Dermal Papilla Cell Proliferation Ability (%): one day, control = 100; for proliferation of dermal papilla cells, result in words: summary of Table 8
Method: Human-derived dermal papilla cells (DPCs) were purchased from PromoCell GmbH. The DPCs were cultured in a DMEM medium (Hyclone Inc., Utah, USA) containing 5% of fetal bovine serum (FBS; Gibco, NY, USA), 10 units/mL of penicillin and 100 μg/mL of streptomycin at 37° C. under 5% of CO2. The cultured DPCs were pipetted to a 96-well plate at 3,000 cells/well and cultured under the condition of 0.1% of serum for 24 hours. Then, the cultured cells were treated with 10 μg/mL of each of the samples of rhaponticin, rhein, chrysophanol, physicon-8-O-glucopyranoside and combinations thereof as shown in the following Table 8 for one day and then incubated, and DMSO (vehicle) diluted to 1:1000 in serum-free DMEM was used as a control and 2 μg/mL of minoxidil was used as a positive control . After incubation, a cell counting kit (CCK) was used to evaluate proliferation of cells. The culture medium was treated with CCK-8 at a ratio of 1:10, followed by incubation for 1 hour. After 1 hour, the absorbance of each well was determined at 450 nm. All tests were repeated three times and the average of absorbance value was calculated. The results are shown by the percentage of a test group as the result of the control is taken as 100.

Escin
amount of β-catenin in dermal papilla cells, result in words (β-catenin): significant increase in amount of β-catenin | Wnt/β-catenin signal effect compared to the positive control wnt3a protein [1]: higher effect as compared to the positive control | amplification of Wnt/β-catenin signals as compared to the non-treated negative control ([1]; no concentration dependence, clear effect at about 20 μg/mL): approximately 11 times | Dermal Papilla Cell Proliferation Ability (%) ([2]; 0.2 μg/mL): 168.8% | Dermal Papilla Cell Proliferation Ability (%) ([2]; 0.5 μg/mL): 198.7% | Dermal Papilla Cell Proliferation Ability (%) ([2]; 1 μg/mL): 194.4% | Dermal Papilla Cell Proliferation Ability (%) ([2]; 2 μg/mL): 204.8% | Dermal Papilla Cell Proliferation Ability (%) ([2]; 5 μg/mL): 208.3% | DPC proliferation, result in words ([2]; escin 0.2-5 μg/mL): shows an effect of DPC proliferation

COc1cc(OC2OC(CO)C(O)C(O)C2O)c2c(c1)C(=O)c1cc(C)cc(O)c1C2=O (stereo not drawn) [Physicon-8-O-d-glucopyranoside]
Expression of Genes (%): Versican (Versican; 10 μg/mL): 175% | expression of versican, result in words (Versican): increase expression | Expression of Genes (%): DKK-1 (DKK-1; 10 μg/mL): 75% | expression of DKK-1, result in words (DKK-1): reduce expression of DKK-1 | Expression of Genes (%): VEGF (VEGF; 10 μg/mL): 164% | expression of VEGF, result in words (VEGF): increase expression of VEGF | Dermal Papilla Cell Proliferation Ability (%) ([3]; 10 μg/mL): 148.3% | proliferation of dermal papilla cells, result in words [3]: excellent effect of accelerating proliferation of dermal papilla cells

COc1ccc(/C=C/c2cc(O)cc(O[C@@H]3O[C@H](CO)[C@@H](O)[C@H](O)[C@H]3O)c2)cc1O [Rhaponticin]
Expression of Genes (%): Versican (Versican; 10 μg/mL): 130% | expression of versican, result in words (Versican): increase expression | Expression of Genes (%): DKK-1 (DKK-1; 10 μg/mL): 112% | expression of DKK-1, result in words (DKK-1): reduce expression of DKK-1 | Expression of Genes (%): VEGF (VEGF; 10 μg/mL): 210% | expression of VEGF, result in words (VEGF): increase expression of VEGF | Dermal Papilla Cell Proliferation Ability (%) ([3]; 10 μg/mL): 162.7% | proliferation of dermal papilla cells, result in words [3]: excellent effect of accelerating proliferation of dermal papilla cells

Nc1cc(N2CCCCC2)nc(N)[n+]1[O-] [Minoxidil, 2,4-diamino-6-piperidinopyrimidine-3-oxide, reference compound]
Expression of Genes (%): Versican (Versican; 2 μg/mL): 134% | Expression of Genes (%): DKK-1 (DKK-1; 2 μg/mL): 128% | Expression of Genes (%): VEGF (VEGF; 2 μg/mL): 110% | Dermal Papilla Cell Proliferation Ability (%) ([3]; 2 μg/mL): 187.2%

Cc1cc(O)c2c(c1)C(=O)c1cccc(O)c1C2=O [Chrysophanol]
Expression of Genes (%): Versican (Versican; 10 μg/mL): 158% | expression of versican, result in words (Versican): increase expression | Expression of Genes (%): DKK-1 (DKK-1; 10 μg/mL): 123% | expression of DKK-1, result in words (DKK-1): reduce expression of DKK-1 | Expression of Genes (%): VEGF (VEGF; 10 μg/mL): 250% | expression of VEGF, result in words (VEGF): increase expression of VEGF | Dermal Papilla Cell Proliferation Ability (%) ([3]; 10 μg/mL): 152.0% | proliferation of dermal papilla cells, result in words [3]: excellent effect of accelerating proliferation of dermal papilla cells

O=C(O)c1cc(O)c2c(c1)C(=O)c1cccc(O)c1C2=O [Rhein]
Expression of Genes (%): Versican (Versican; 10 μg/mL): 154% | expression of versican, result in words (Versican): increase expression | Expression of Genes (%): DKK-1 (DKK-1; 10 μg/mL): 76% | expression of DKK-1, result in words (DKK-1): reduce expression of DKK-1 | Expression of Genes (%): VEGF (VEGF; 10 μg/mL): 144% | expression of VEGF, result in words (VEGF): increase expression of VEGF | Dermal Papilla Cell Proliferation Ability (%) ([3]; 10 μg/mL): 152.7% | proliferation of dermal papilla cells, result in words [3]: excellent effect of accelerating proliferation of dermal papilla cells
